# Earlier results, collected in patent publication US8828946B2, “Composition comprising interleukin-1 receptor antagonist and corticosteroid” (Orthogen AG, priority 2009, dated 2014).
# Assays:
# low facet arthrosis = details: Case VII; in-patient injections into the low facets (patient history)
# [1] = tested on: moderate knee osteoarthritis ab degree II-III; details: Case III; injections into the knee in the past (patient history)
# [2] = tested on: medial knee osteoarthritis ri degree IV and retropatellar; details: Case V; injections in the past (patient history)
# [3] = tested on: partial rotator cuff rupture and subacromial constriction with complete shoulder stiffness le; details: Case IX; numerous injections into the left shoulder (patient history)
# [4] = tested on: moderate rhizarthrosis ri; details: Case II; injections in the past (patient history)
# impingement le shoulder = details: Case IV; previous injections (patient history)
Molecule,outcome of previous treatment (low facet arthrosis),outcome of previous treatment [1],outcome of previous treatment [2],outcome of previous treatment [3],outcome of previous treatment [4],outcome of previous treatment (impingement le shoulder),effect in the treatment of osteoarthritis and degenerative spinal diseases (osteoarthritis; Anakinra alone),"effect in the treatment of osteoarthritis (osteoarthritis; alone, compared to a placebo treatment)"
C[C@]12CCC(=O)C=C1CC[C@@H]1[C@@H]2C(=O)C[C@@]2(C)[C@H]1CC[C@]2(O)C(=O)CO [cortisone],without success,unsuccessful,without clinical success,without success,without success,without success,–,–
Anakinra,–,–,–,–,–,–,does not show any effect,did not show any effects
hyaluronic acid,–,unsuccessful,without clinical success,–,–,–,–,–
